Measurements as given in the NIST ThermoML archive (doi:10.1021/je2005209).
± gives the expanded uncertainty stated by the source.

Conditions: 351.55 K; Liquid; Ebulliometric method (Recirculating still)

SMILES: CCO [ethanol]
- vapor or sublimation pressure: 101.32 ± 1.1 kPa
